Assay results from paper PMC12369603, “Functional characterization of antennae-enriched chemosensory protein 4 in emerald ash borer, Agrilus planipennis” (PeerJ, 2025).
Several values for one entry are separate records, joined by “and”; a condition that tells them apart may be missing. Equal entries are not always repeated. Where two headings read alike, the source gives them in different places. One block for each compound: values may come before it.

How the values were obtained:
Cnaphalocrocis medinalis = test system: Cnaphalocrocis medinalis; parameters: method as in Cáceres et al., 2016; Sun et al., 2016; conditions: ref Cáceres et al., 2016, Sun et al.; cited from earlier work
[1] = molecular target: recombinant AplaCSP4 (Agrilus planipennis chemosensory protein 4) (Agrilus planipennis, UniProt A0A1W4XLL0); experiment: biochemical; format: binding; conditions: for Competitive binding capability(%) / activity at 2 µM / activity at 4 µM / activity at 6 µM / activity at 8 µM / activity at 10 µM / activity at 12 µM: three replicate columns, 100 at 0 μM
recombinant AplaCSP4 (Agrilus planipennis chemosensory protein 4), sequence (A0A1W4XLL0 entry or part of it): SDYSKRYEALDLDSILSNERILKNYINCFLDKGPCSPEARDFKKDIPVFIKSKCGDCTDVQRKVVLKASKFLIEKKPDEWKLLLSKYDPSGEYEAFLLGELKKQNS
Experimental: Specifically, the binding affinities of AplaCSP4 for 43 volatile organic compounds were determined using F-380 fluorescence spectrophotometer (Tianjin, China) with a 10 nm slits and a 1 cm light path. These 43 substances are common green leaf volatiles, among which 16 volatiles originate from the ash tree. […]

Phyllotreta cruciferae = test system: Phyllotreta cruciferae; parameters: method as in Cáceres et al., 2016; Sun et al., 2016; conditions: ref Cáceres et al., 2016, Sun et al.; cited from earlier work
Mythimna separata = test system: Mythimna separata; parameters: method as in Younas et al., 2022; conditions: ref Younas et al., 2022; cited from earlier work
[2] = ligand concentration 2 μM, 2 µM
[3] = ligand concentration 4 μM, 4 µM
[4] = ligand concentration 6 μM, 6 µM
[5] = ligand concentration 8 μM, 8 µM
[6] = ligand concentration 10 μM, 10 µM
[7] = ligand concentration 12 μM, 12 µM

Kd [1]: 4230 ± 70 nM | Competitive binding capability(%) [1, 2]: 74.4951% and 75.2037% | Competitive binding capability(%) [1, 3]: 60.2358% and 60.8061% | Competitive binding capability(%) [1, 4]: 50.2199% and 51.0303% | Competitive binding capability(%) [1, 5]: 42.8154% and 43.7153% | Competitive binding capability(%) [1, 6]: 37.3498% and 38.224% | Competitive binding capability(%) [1, 7]: 33.5198% and 33.2165% | activity at 2 µM ([1]; pH 7.4, read-out: Competitive binding capability(%), ligand concentration 2 μM): 75.8% | activity at 4 µM ([1]; pH 7.4, read-out: Competitive binding capability(%), ligand concentration 4 μM): 61.2% | activity at 6 µM ([1]; pH 7.4, read-out: Competitive binding capability(%), ligand concentration 6 μM): 51.9% | activity at 8 µM ([1]; pH 7.4, read-out: Competitive binding capability(%), ligand concentration 8 μM): 45% | activity at 10 µM ([1]; pH 7.4, read-out: Competitive binding capability(%), ligand concentration 10 μM): 38.5% | activity at 12 µM ([1]; pH 7.4, read-out: Competitive binding capability(%), ligand concentration 12 μM): 34.6%
SMILES: CC(=O)/C=C/C1=C(C)CCCC1(C)C [β-Ionone]
repellent activity (Cnaphalocrocis medinalis): repellent activity | repellent activity (Phyllotreta cruciferae): repellent activity

binding to AplaCSP4 (in words) ([1]; discussion of fluorescence competitive binding results): particularly high binding affinity | Competitive binding capability(%) [1, 2]: 51.463% and 50.752% | Competitive binding capability(%) [1, 3]: 34.5446% and 32.1031% | Competitive binding capability(%) [1, 4]: 25.4151% and 25.0577% | Competitive binding capability(%) [1, 5]: 20.9595% and 20.5391% | Competitive binding capability(%) [1, 6]: 17.6278% and 17.3179% | Competitive binding capability(%) [1, 7]: 15.4258% and 15.6099% | activity at 2 µM ([1]; pH 7.4, ligand concentration 2 μM, read-out: Competitive binding capability(%)): 49.2% | activity at 4 µM ([1]; pH 7.4, ligand concentration 4 μM, read-out: Competitive binding capability(%)): 35.3% | activity at 6 µM ([1]; pH 7.4, ligand concentration 6 μM, read-out: Competitive binding capability(%)): 25.6% | activity at 8 µM ([1]; pH 7.4, ligand concentration 8 μM, read-out: Competitive binding capability(%)): 21.1% | activity at 10 µM ([1]; pH 7.4, ligand concentration 10 μM, read-out: Competitive binding capability(%)): 17.9% | activity at 12 µM ([1]; pH 7.4, ligand concentration 12 μM, read-out: Competitive binding capability(%)): 16.1% | Kd ([1]; read-out: K D ±SE (dissociation constant)): 1380 ± 30 nM
SMILES: C=CC(C)(O)CCC=C(C)CCC=C(C)C (mixture of isomers) [Nerolidol]
attractive activity (Mythimna separata): attractive activity
